Experimental data from patent publication US5948791A, “Quinoline derivatives for treating malaria” (Hoffmann-La Roche Inc., priority 1995, dated 1999).
Where two headings read alike, the source gives them in different places.

Legend:
[1] = tested on: Plasmodium falciparum strain NF54; experiment: Growth inhibition of Plasmodium falciparum NF54 (chloroquine-sensitive) in vitro, [G-3H]-hypoxanthin incorporation; format: cell-based; conditions: chloroquine-sensitive strain NF54, 72 h, read-out: IC50 for P. falciparum NF54
Summary of the method: (§1)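 Asynchronous intraerythrocytic cultures in human A+ erythrocytes (0.7% parasitemia, 2.5% suspension) in RPMI 1640 with HEPES, NaHCO3 and human serum, exposed to compound titrated over 6-7 steps for 72 h at 37° C, 3% O2. Growth by [G-3H]-hypoxanthin incorporation against untreated controls; IC50 by logit regression.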

Plasmodium falciparum K1 = experiment: Growth inhibition of Plasmodium falciparum K1 (chloroquine-resistant) in vitro, [G-3H]-hypoxanthin incorporation; format: cell-based, Plasmodium falciparum (strain K1); conditions: for IC50: Plasmodium falciparum, K1, 72 h, read-out: IC50 for P. falciparum K1; for Resistance index: ratio of the IC50 for K1 and the IC50 for NF54
Summary of the method: as §1

Plasmodium berghei = experiment: animal or person; format: in vivo, Plasmodium berghei (strain ANKA) in mice; conditions: Plasmodium berghei, mice, blood smears 48 h after treatment
Summary of the method: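 Male albino mice (~25 g) infected i.v. on D0 with P. berghei ANKA (0.2 ml of 10^8 parasitized erythrocytes/ml); single s.c. and p.o. dose 24 h post-infection, 10 mg/kg screen then titration.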

[2] = po, single peroral dose of 10 mg/kg, read-out: Growth inhibition in % after po administration (GI%, percentage reduction of the parasitemia)
[3] = sc, single subcutaneous dose of 10 mg/kg, read-out: Growth inhibition in % after sc administration (GI%, percentage reduction of the parasitemia)

SMILES | IC50 [1] [ng/mL] | IC50 (Plasmodium falciparum K1) [ng/mL] | Resistance index (Plasmodium falciparum K1) | inhibition in vivo at 10 mg/kg (Plasmodium berghei; [2]) [%] | inhibition in vivo at 10 mg/kg (Plasmodium berghei; [3]) [%]
CN(C)c1ccc(CN[C@H]2CC[C@@H](Nc3ccnc4cc(Cl)ccc34)CC2)cc1.Cl.Cl.Cl [Example 69, cis-N1-(7-Chloro-quinolin-4-yl)-N4-(4-dimethylamino-benzyl)-cyclohexane-1,4-diamine trihydrochloride] | 3.7 | 4.6 | 1.2 | 100 | 100
Cl.Cl.Clc1ccc2c(N[C@H]3CC[C@@H](NCc4ccccc4)CC3)ccnc2c1 [Example 70, cis-N1-(7-Chloro-quinolin-4-yl)-N4-(benzyl)-cyclohexane-1,4-diamine dihydrochloride] | 3.8 | 6.6 | 1.7 | 99.9 | 99.9
Cl.Cl.Clc1cccc(CN[C@H]2CC[C@@H](Nc3ccnc4cc(Cl)ccc34)CC2)c1 [Example 71, cis-N1-(7-Chloro-quinolin-4-yl)-N4-(3-chloro-benzyl)-cyclohexane-1,4-diamine dihydrochloride] | 7.1 | 9.3 | 1.3 | 99.8 | 99.9
Cl.Cl.Clc1ccc(CN[C@H]2CC[C@@H](Nc3ccnc4cc(Cl)ccc34)CC2)cc1 [Example 72, cis-N1-(7-Chloro-quinolin-4-yl)-N4-(4-chloro-benzyl)-cyclohexane-1,4-diamine dihydrochloride] | 11.6 | 11.2 | 1.0 | 99.5 | 99.9
Cl.Cl.Clc1ccc(CN[C@H]2CC[C@@H](Nc3ccnc4cc(Cl)ccc34)CC2)c(Cl)c1 [Example 73, cis-N1-(7-Chloro-quinolin-4-yl)-N4-(2,4-dichloro-benzyl)-cyclohexane-1,4-diamine dihydrochloride] | 15 | 19 | 1.3 | 23 | 96
Cl.Cl.Clc1ccc2c(N[C@H]3CC[C@@H](NCc4ccc(Cl)c(Cl)c4)CC3)ccnc2c1 [Example 74, cis-N1-(7-Chloro-quinolin-4-yl)-N4-(3,4-dichloro-benzyl)-cyclohexane-1,4-diamine dihydrochloride] | 23.3 | 14.5 | 0.6 | 83 | 84
Cl.Cl.Clc1cc(Cl)cc(CN[C@H]2CC[C@@H](Nc3ccnc4cc(Cl)ccc34)CC2)c1 [Example 75, cis-N1-(7-Chloro-quinolin-4-yl)-N4-(3,5-dichloro-benzyl)-cyclohexane-1,4-diamine dihydrochloride] | 25 | 18 | 0.7 | 99.8 | 99.7
Cl.Cl.Fc1cc(CN[C@H]2CC[C@@H](Nc3ccnc4cc(Cl)ccc34)CC2)ccc1Cl [Example 76, cis-N1-(7-Chloro-quinolin-4-yl)-N4-(4-chloro-3-fluoro-benzyl)-cyclohexane-1,4-diamine dihydrochloride] | 7.2 | 6.1 | 0.8 | 96 | 96
Cl.Cl.FC(F)(F)c1cc(CN[C@H]2CC[C@@H](Nc3ccnc4cc(Cl)ccc34)CC2)cc(C(F)(F)F)c1 [Example 77, cis-N1-(7-Chloro-quinolin-4-yl)-N4-(3,5-bis-trifluoromethyl-benzyl)-cyclohexane-1,4-diamine dihydrochloride] | 96.6 | 63.2 | 0.7 | 99 | 98
COc1ccc(CN[C@H]2CC[C@@H](Nc3ccnc4cc(Cl)ccc34)CC2)c(O)c1.Cl.Cl [Example 79, cis-N1-(7-Chloro-quinolin-4-yl)-N4-(2-hydroxy-4-methoxy-benzyl)-cyclohexane-1,4-diamine dihydrochloride] | 4.1 | 7.7 | 1.9 | 99.9 | 100
COc1ccc(O)c(CN[C@H]2CC[C@@H](Nc3ccnc4cc(Cl)ccc34)CC2)c1.Cl.Cl [Example 80, cis-N1-(7-Chloro-quinolin-4-yl)-N4-(2-hydroxy-5-methoxy-benzyl)-cyclohexane-1,4-diamine dihydrochloride] | 8.9 | 18.4 | 2.1 | 99.9 | 100
COc1ccc(CN[C@H]2CC[C@@H](Nc3ccnc4cc(Cl)ccc34)CC2)c(OC)c1.Cl.Cl [Example 81, cis-N1-(7-Chloro-quinolin-4-yl)-N4-(2,4-dimethoxy-benzyl)-cyclohexane-1,4-diamine dihydrochloride] | 4.3 | 9.7 | 2.3 | 100 | 100
COc1cc(CN[C@H]2CC[C@@H](Nc3ccnc4cc(Cl)ccc34)CC2)cc(OC)c1.Cl.Cl [Example 82, cis-N1-(7-Chloro-quinolin-4-yl)-N4-(3,5-dimethoxy-benzyl)-cyclohexane-1,4-diamine dihydrochloride] | 5.7 | 8.5 | 1.5 | 99.9 | 99.9
CSc1ccc(CN[C@H]2CC[C@@H](Nc3ccnc4cc(Cl)ccc34)CC2)cc1.Cl.Cl [Example 83, cis-N1-(7-Chloro-quinolin-4-yl)-N4-(4-methylsulphanyl-benzyl)-cyclohexane-1,4-diamine dihydrochloride] | 8.6 | 5.9 | 0.7 | 100 | 100
Cl.Cl.O=[N+]([O-])c1ccc(CN[C@H]2CC[C@@H](Nc3ccnc4cc(Cl)ccc34)CC2)cc1 [Example 84, cis-N1-(7-Chloro-quinolin-4-yl)-N4-(4-nitro-benzyl)-cyclohexane-1,4-diamine dihydrochloride] | 6.9 | 7.8 | 1.1 | 100 | 100
CCN(CC)c1ccc(CN[C@H]2CC[C@@H](Nc3ccnc4cc(Cl)ccc34)CC2)cc1.Cl.Cl.Cl [Example 85, cis-N1-(7-Chloro-quinolin-4-yl)-N4-(4-diethylamino-benzyl)-cyclohexane-1,4-diamine trihydrochloride] | 4.6 | 3.9 | 0.8 | 99.9 | 100
Cl.Cl.N#Cc1ccc(CN[C@H]2CC[C@@H](Nc3ccnc4cc(Cl)ccc34)CC2)cc1 [Example 86, cis-N1-(7-Chloro-quinolin-4-yl)-N4-(4-cyano-benzyl)-cyclohexane-1,4-diamine dihydrochloride] | 5.6 | 7 | 1.3 | 99.9 | 99.9
Cl.Cl.Clc1ccc2c(N[C@H]3CC[C@@H](NCc4ccc(-c5ccccc5)cc4)CC3)ccnc2c1 [Example 87, cis-N1-(7-Chloro-quinolin-4-yl)-N4-(biphenyl-4-yl-methyl)-cyclohexane-1,4-diamine dihydrochloride] | 6.2 | 10.2 | 1.6 | 98 | 94
COc1ccc(CCN[C@H]2CC[C@H](Nc3ccnc4cc(Cl)ccc34)CC2)cc1OC.Cl.Cl [Example 88, trans-N1-(7-Chloro-quinolin-4-yl)-N4-[2-(3,4-dimethoxy-phenyl)-ethyl]-cyclohexane-1,4-diamine dihydrochloride] | 7.4 | 21.4 | 2.9 | 66 | 99.9
Cl.Cl.Clc1ccc2c(N[C@H]3CC[C@H](NCCc4ccccc4)CC3)ccnc2c1 [Example 89, trans-N1-(7-Chloro-quinolin-4-yl)-N4-phenethyl-cyclohexane-1,4-diamine dihydrochloride] | 2.2 | 17.5 | 8.0 | 99.8 | 99.9
COc1cc(N[C@H]2CC[C@H](Nc3ccnc4cc(Cl)ccc34)CC2)cc(OC)c1.Cl [Example 90, trans-N1-(7-Chloro-quinolin-4-yl)-N4-(3,5-dimethoxy-phenyl)-cyclohexane-1,4-diamine hydrochloride] | 49.7 | 98.8 | 2.0 | 45 | 60
Cl.Cl.Clc1ccc(CCN[C@H]2CC[C@H](Nc3ccnc4cc(Cl)ccc34)CC2)c(Cl)c1 [Example 91, trans-N1-(7-Chloro-quinolin-4-yl)-N4-[2-(2,4-dichloro-phenyl)-ethyl]-cyclohexane-1,4-diamine dihydrochloride] | 3.4 | 10.9 | 3.2 | 88 | 86
